Results from patent US20200024278A1, “COMPOSITION COMPRISING ANTIBIOTIC COMPOUND AND AN HETEROCYCLIC COMPOUND AND THEIR USE IN PREVENTING OR TREATING BACTERIAL INFECTIONS” (MUTABILIS, priority 2016, published 2020).

Columns and labels:
Assay in all cases: MIC, broth microdilution (CLSI), substance alone or ATB combined with compound at 4 or 8 μg/mL
[1] = tested on: ECO UFR39; type: cell-based, E. coli; conditions: ECO UFR39; for MIC ATB combined with Example 13 @8 μg/ml: with Example 13 at 8 μg/ml
Protocol: (§1) Compounds of the present invention were assessed against genotyped bacterial strains alone or in combination with an antibacterial. In the assays, MICs of said compounds or combination of antibiotics with fixed concentrations of said compounds (4 or 8 μg/mL) were determined by the broth microdilution method according to the Clinical Laboratory Standards Institute (CLSI-M7-A7). Briefly, compounds alone according to the invention were prepared in DMSO and spotted (2 μL each) on sterile polystyrene plates (Corning, 3788). Combinations of compounds and antibiotics dilutions were prepared in DMSO and spotted (1 μL each) on sterile polystyrene plates (Corning, 3788). Log phase bacterial suspensions were adjusted to a final density of 5·10^5 CFU/mL in cation-adjusted Mueller-Hinton broth (ca-MHB; Becton-Dickinson and Company) and added to each well (98 μL). Assays including Fosfomycin were supplemented with 25 μg/ml of Glucose-6-phosphate. Microplates were incubated for 16-20 h at 35° C. in ambient air. The MIC of the compounds was defined as the lowest concentration of said compounds that prevented bacterial growth as read by visual inspection. The MIC of ATB at each compound concentration was defined as the lowest concentration of ATB that prevented bacterial growth as read by visual inspection.

[2] = tested on: ECO 190317; type: cell-based, E. coli; conditions: ECO 190317; for MIC ATB combined with Example 13 @8 μg/ml: with Example 13 at 8 μg/ml
Protocol: as §1

[3] = tested on: SAU 29213; type: cell-based, S. aureus; conditions: SAU 29213; for MIC ATB alone: antibiotic alone; for MIC ATB combined with Example 7 @8 μgml: with Example 7 at 8 μg/ml; for MIC ATB combined with Example 11 @8 μg/ml: with Example 11 at 8 μg/ml; for MIC ATB combined with Example 13 @8 μg/ml: with Example 13 at 8 μg/ml; for MIC ATB combined with Example 15 @4 μgml: with Example 15 at 4 μg/ml
Protocol: as §1

[4] = tested on: SPN 49619; type: cell-based, S. pneumoniae; conditions: SPN 49619; for MIC ATB alone: antibiotic alone; for MIC ATB combined with Example 7 @8 μgml: with Example 7 at 8 μg/ml; for MIC ATB combined with Example 11 @8 μg/ml: with Example 11 at 8 μg/ml; for MIC ATB combined with Example 13 @8 μg/ml: with Example 13 at 8 μg/ml; for MIC ATB combined with Example 15 @4 μgml: with Example 15 at 4 μg/ml; for MIC ATB combined with Example 16 @4 μg/ml: with Example 16 at 4 μg/ml
Protocol: as §1

[5] = tested on: PAE 105250; type: cell-based, P. aeruginosa; conditions: PAE 105250; for MIC ATB combined with Example 12 @8 μg/ml: with Example 12 at 8 μg/ml; for MIC ATB combined with Example 14 @8 μg/ml: with Example 14 at 8 μg/ml; for MIC ATB combined with Example 16 @4 μg/ml: with Example 16 at 4 μg/ml
Protocol: as §1

[6] = tested on: PAE UFR90; type: cell-based, P. aeruginosa; conditions: PAE UFR90; for MIC ATB combined with Example 14 @8 μg/ml: with Example 14 at 8 μg/ml; for MIC ATB combined with Example 16 @4 μg/ml: with Example 16 at 4 μg/ml
Protocol: as §1

[7] = tested on: PAE UFR48; type: cell-based, P. aeruginosa; conditions: PAE UFR48; for MIC ATB combined with Example 12 @8 μg/ml: with Example 12 at 8 μg/ml; for MIC ATB combined with Example 14 @8 μg/ml: with Example 14 at 8 μg/ml; for MIC ATB combined with Example 16 @4 μg/ml: with Example 16 at 4 μg/ml
Protocol: as §1

[8] = tested on: ECL P99; type: cell-based, E. cloacae; conditions: ECL P99
Protocol: as §1

SMILES: CO/N=C(\C(=O)N[C@@H]1C(=O)N2C(C(=O)O)=C(COC(C)=O)CS[C@H]12)c1csc(N)n1 [CTX]
- MIC ATB combined with Example 13 @8 μg/ml [1]: <0.031 µg/mL
- MIC ATB combined with Example 1 @8 μg/ml ([2]; with Example 1 @8 μg/ml): <0.031 µg/mL
- MIC ATB combined with Example 1 @8 μg/ml ([2]; with Example 1 at 8 μg/ml): <0.031 µg/mL
- MIC ATB combined with Example 13 @8 μg/ml [2]: <0.031 µg/mL
- MIC ATB alone [3]: 2 µg/mL
- MIC ATB combined with Example 1 @8 μg/ml ([3]; with Example 1 @8 μg/ml): 2 µg/mL
- MIC ATB combined with Example 1 @8 μg/ml ([3]; with Example 1 at 8 μg/ml): 2 µg/mL
- MIC ATB combined with Example 7 @8 μgml [3]: 1 µg/mL
- MIC ATB combined with Example 11 @8 μg/ml [3]: <=0.031 μg/mL
- MIC ATB combined with Example 13 @8 μg/ml [3]: 1 µg/mL
- MIC ATB combined with Example 15 @4 μgml [3]: 0.5 µg/mL
- MIC ATB alone [4]: 0.063 µg/mL
- MIC ATB combined with Example 1 @8 μg/ml ([4]; with Example 1 @8 μg/ml): <=0.031 μg/mL
- MIC ATB combined with Example 1 @8 μg/ml ([4]; with Example 1 at 8 μg/ml): <=0.031 μg/mL
- MIC ATB combined with Example 7 @8 μgml [4]: <=0.031 μg/mL
- MIC ATB combined with Example 9 @4 μg/ml ([4]; with Example 9 @4 μg/ml): <=0.031 μg/mL
- MIC ATB combined with Example 9 @4 μg/ml ([4]; with Example 9 at 4 μg/ml): <=0.031 μg/mL
- MIC ATB combined with Example 11 @8 μg/ml [4]: <=0.031 μg/mL
- MIC ATB combined with Example 12 @8 μg/ml ([4]; with Example 12 at 8 μg/ml): <=0.031 μg/mL
- MIC ATB combined with Example 13 @8 μg/ml [4]: <=0.031 μg/mL
- MIC ATB combined with Example 14 @8 μg/ml ([4]; with Example 14 at 8 μg/ml): <=0.031 μg/mL
- MIC ATB combined with Example 15 @4 μgml [4]: <=0.031 μg/mL
- MIC ATB combined with Example 16 @4 μg/ml [4]: <=0.031 μg/mL
- MIC ATB combined with Example 1 @8 μg/ml ([5]; with Example 1 @8 μg/ml): <0.031 µg/mL
- MIC ATB combined with Example 1 @8 μg/ml ([5]; with Example 1 at 8 μg/ml): <0.031 µg/mL
- MIC ATB combined with Example 7 @8 μgml ([5]; with Example 7 at 8 μg/ml): 32 µg/mL
- MIC ATB combined with Example 11 @8 μg/ml ([5]; with Example 11 at 8 μg/ml): 32 µg/mL
- MIC ATB combined with Example 12 @8 μg/ml [5]: >32 µg/mL
- MIC ATB combined with Example 14 @8 μg/ml [5]: >32 µg/mL
- MIC ATB combined with Example 15 @4 μgml ([5]; with Example 15 at 4 μg/ml): 32 µg/mL
- MIC ATB combined with Example 16 @4 μg/ml [5]: >32 µg/mL
- MIC ATB combined with Example 1 @8 μg/ml ([6]; with Example 1 @8 μg/ml): <0.031 µg/mL
- MIC ATB combined with Example 1 @8 μg/ml ([6]; with Example 1 at 8 μg/ml): <0.031 µg/mL
- MIC ATB combined with Example 7 @8 μgml ([6]; with Example 7 at 8 μg/ml): >32 µg/mL
- MIC ATB combined with Example 11 @8 μg/ml ([6]; with Example 11 at 8 μg/ml): >32 µg/mL
- MIC ATB combined with Example 14 @8 μg/ml [6]: >32 µg/mL
- MIC ATB combined with Example 15 @4 μgml ([6]; with Example 15 at 4 μg/ml): >32 µg/mL
- MIC ATB combined with Example 16 @4 μg/ml [6]: >32 µg/mL
- MIC ATB combined with Example 1 @8 μg/ml ([7]; with Example 1 @8 μg/ml): <0.031 µg/mL
- MIC ATB combined with Example 1 @8 μg/ml ([7]; with Example 1 at 8 μg/ml): <0.031 µg/mL
- MIC ATB combined with Example 7 @8 μgml ([7]; with Example 7 at 8 μg/ml): >32 µg/mL
- MIC ATB combined with Example 11 @8 μg/ml ([7]; with Example 11 at 8 μg/ml): >32 µg/mL
- MIC ATB combined with Example 12 @8 μg/ml [7]: >32 µg/mL
- MIC ATB combined with Example 14 @8 μg/ml [7]: >32 µg/mL
- MIC ATB combined with Example 15 @4 μgml ([7]; with Example 15 at 4 μg/ml): >32 µg/mL
- MIC ATB combined with Example 16 @4 μg/ml [7]: >32 µg/mL
- MIC ATB combined with Example 1 @8 μg/ml ([8]; with Example 1 @8 μg/ml): <0.031 µg/mL
- MIC ATB combined with Example 1 @8 μg/ml ([8]; with Example 1 at 8 μg/ml): <0.031 µg/mL
- MIC ATB combined with Example 7 @8 μgml ([8]; with Example 7 at 8 μg/ml): 0.063 µg/mL
- MIC ATB combined with Example 13 @8 μg/ml ([8]; with Example 13 at 8 μg/ml): 1 µg/mL
- MIC ATB combined with Example 15 @4 μgml ([8]; with Example 15 at 4 μg/ml): <=0.031 μg/mL

SMILES: O=C(N[C@H](CO)[C@H](O)c1ccc([N+](=O)[O-])cc1)C(Cl)Cl [CM]
- MIC ATB alone ([1]; antibiotic alone): 64 µg/mL
- MIC ATB combined with Example 1 @8 μg/ml ([1]; with Example 1 @8 μg/ml): <0.031 µg/mL
- MIC ATB combined with Example 1 @8 μg/ml ([1]; with Example 1 at 8 μg/ml): <0.031 µg/mL
- MIC ATB combined with Example 7 @8 μgml ([1]; with Example 7 at 8 μg/ml): <0.031 µg/mL
- MIC ATB combined with Example 13 @8 μg/ml [1]: <=0.031 μg/mL
- MIC ATB alone ([2]; antibiotic alone): 8 µg/mL
- MIC ATB combined with Example 1 @8 μg/ml ([2]; with Example 1 @8 μg/ml): <0.031 µg/mL
- MIC ATB combined with Example 1 @8 μg/ml ([2]; with Example 1 at 8 μg/ml): <0.031 µg/mL
- MIC ATB combined with Example 7 @8 μgml ([2]; with Example 7 at 8 μg/ml): <0.031 µg/mL
- MIC ATB combined with Example 13 @8 μg/ml [2]: <0.031 µg/mL
- MIC ATB alone [3]: 16 µg/mL
- MIC ATB combined with Example 1 @8 μg/ml ([3]; with Example 1 @8 μg/ml): 16 µg/mL
- MIC ATB combined with Example 1 @8 μg/ml ([3]; with Example 1 at 8 μg/ml): 16 µg/mL
- MIC ATB combined with Example 7 @8 μgml [3]: 4 µg/mL
- MIC ATB combined with Example 11 @8 μg/ml [3]: <=0.031 μg/mL
- MIC ATB combined with Example 13 @8 μg/ml [3]: 4 µg/mL
- MIC ATB combined with Example 15 @4 μgml [3]: 0.063 µg/mL
- MIC ATB alone [4]: 4 µg/mL
- MIC ATB combined with Example 1 @8 μg/ml ([4]; with Example 1 @8 μg/ml): 4 µg/mL
- MIC ATB combined with Example 1 @8 μg/ml ([4]; with Example 1 at 8 μg/ml): 4 µg/mL
- MIC ATB combined with Example 7 @8 μgml [4]: 2 µg/mL
- MIC ATB combined with Example 11 @8 μg/ml [4]: 2 µg/mL
- MIC ATB combined with Example 13 @8 μg/ml [4]: 2 µg/mL
- MIC ATB combined with Example 15 @4 μgml [4]: 2 µg/mL
- MIC ATB combined with Example 16 @4 μg/ml [4]: <=0.031 μg/mL
- MIC ATB combined with Example 12 @8 μg/ml [5]: >32 µg/mL
- MIC ATB combined with Example 14 @8 μg/ml [5]: >32 µg/mL
- MIC ATB combined with Example 16 @4 μg/ml [5]: >32 µg/mL
- MIC ATB alone ([6]; antibiotic alone): >1024 µg/mL
- MIC ATB combined with Example 1 @8 μg/ml ([6]; with Example 1 @8 μg/ml): <0.031 µg/mL
- MIC ATB combined with Example 1 @8 μg/ml ([6]; with Example 1 at 8 μg/ml): <0.031 µg/mL
- MIC ATB combined with Example 12 @8 μg/ml ([6]; with Example 12 at 8 μg/ml): >32 µg/mL
- MIC ATB combined with Example 14 @8 μg/ml [6]: >32 µg/mL
- MIC ATB combined with Example 16 @4 μg/ml [6]: >32 µg/mL
- MIC ATB alone ([7]; antibiotic alone): 512 µg/mL
- MIC ATB combined with Example 1 @8 μg/ml ([7]; with Example 1 @8 μg/ml): <0.031 µg/mL
- MIC ATB combined with Example 1 @8 μg/ml ([7]; with Example 1 at 8 μg/ml): <0.031 µg/mL
- MIC ATB combined with Example 12 @8 μg/ml [7]: >32 µg/mL
- MIC ATB combined with Example 14 @8 μg/ml [7]: >32 µg/mL
- MIC ATB combined with Example 16 @4 μg/ml [7]: >32 µg/mL
- MIC ATB alone ([8]; antibiotic alone): 512 µg/mL
- MIC ATB combined with Example 1 @8 μg/ml ([8]; with Example 1 @8 μg/ml): <0.031 µg/mL
- MIC ATB combined with Example 1 @8 μg/ml ([8]; with Example 1 at 8 μg/ml): <0.031 µg/mL
